In brackets after ≈: the same amount, converted by molar mass.
System: MCF-7 human breast cancer cells (fatty acid synthesis pathway activity)
Test: [14C]acetate incorporation into total lipids
Format: cell-based
Conditions: MCF7, [14C]acetate incorporation into lipids
Experimental: Measurement of [^14C]acetate Incorporation into Total Lipids and Determination of IC50 of Compounds. This assay measures the incorporation of [^14C]acetate into total lipids and is a measure of fatty acid synthesis pathway activity in vitro. It is utilized to measure inhibition of fatty acid synthesis in vitro.
MCF-7 human breast cancer cells cultured as above, are plated at 5×10^4 cells per well in 24-well plates. Following overnight incubation, the compounds to be tested, solubilized in DMSO, are added at 5, 10, and 20 μg/ml in triplicate, with lower concentrations tested if necessary. DMSO is added to triplicate wells for a vehicle control. C75 is run at 5 and 10 μg/ml in triplicate as positive controls. After 4 hours of incubation, 0.25 μCi of [^14C]acetate (10 μl volume) is added to each well.
After 2 hours of additional incubation, medium is aspirated from the wells and 800 μl of chloroform:methanol (2:1) and 700 μl of 4 mM MgCl2 is added to each well. Contents of each well are transferred to 1.5 Eppendorf tubes, and spun at full-speed for 2 minutes in a high-speed Eppendorf Microcentrifuge 5415D. After removal of the aqueous (upper) layer, an additional 700 μl of chloroform:methanol (2:1) and 500 μl of 4 mM MgCl2 are added to each tube and then centrifuged for 1 minutes as above. The aqueous layer is removed with a Pasteur pipette and discarded. An additional 400 μl of chloroform:methanol (2:1) and 200 μl of 4 mM MgCl2 are added to each tube, then centrifuged and aqueous layer is discarded. The lower (organic) phase is transferred into a scintillation vial and dried at 40° C. under N2 gas. Once dried, 3 ml of scintillant (APB #NBC5104) is added and vials are counted for ^14C. The Beckman Scintillation counter calculates the average cpm values for triplicates.
The IC50 for the compounds is defined as the concentration of drug leading to a 50% reduction in [^14C]acetate incorporation into lipids compared to controls. This is determined by plotting the average cpm for each inhibitor concentration tested, performing linear regression and computing the best-fit line, r^2 values, and 95% confidence intervals. The average cpm values are computed by the Beckman scintillation counter (Model LS6500) for each compound concentration. Computation of linear regression, best-fit line, r^2, and 95% confidence intervals are calculated using Prism Version 3.0 (Graph Pad Software).
In the case of `CCCCCCCCC1(C)SC(=O)C=C1OCC(=O)Nc1ccc(C(N)=O)cc1` (centres unmarked), the IC50 is reported as 12.3 µg/mL (≈ 29.4 µM). In the case of `CCCCCCCCC1(C)SC(=O)C=C1OCC(=O)Nc1ccc(C#N)cc1` (centres unmarked), the IC50 is reported as > 80 µg/mL. In the case of `CCCCCCCCC1(C)SC(=O)C=C1OCC(=O)Nc1ccc(S(N)(=O)=O)cc1` (centres unmarked), the IC50 is reported as 26.3 µg/mL (≈ 57.9 µM).

System: MCF-7 human breast cancer cells
Test: XTT cytotoxicity assay, MCF-7 (M)
Format: cell-based
Conditions: MCF7, MCF-7, 72 hours
Experimental: XTT Cytotoxicity Assay The XTT assay is a non-radioactive alternative for the [^51Cr] release cytotoxicity assay. XTT is a tetrazolium salt that is reduced to a formazan dye only by metabolically active, viable cells. The reduction of XTT is measured spectrophotometrically as OD490-OD650. To measure the cytotoxicity of specific compounds against cancer cells, 9×10^3 MCF-7 human breast cancer cells (shown in the tables as “(M)”), obtained from the American Type Culture Collection are plated per well in 96 well plates in DMEM medium with 10% fetal bovine serum, insulin, penicillin, and streptomycin. Following overnight culture at 37° C. and 5% CO2, the compounds to be tested, dissolved in DMSO, are added to the wells in 1 μl volume at the following concentrations: 80, 40, 20, 10, 5, 2.5, 1.25, and 0.625 μg/ml in triplicate. Additional concentrations are tested if required. 1 μl of DMSO is added to triplicate wells are the vehicle control. C75 is run at 40, 20, […], and 5 μg/ml in triplicate as positive controls. After 72 hours of incubation, cells are incubated for 4 hours with the XTT reagent as per manufacturer's instructions (Cell Proliferation Kit II (XTT) Roche). Plates are read at OD490 and OD650 on a Molecular Devices SpectraMax Plus Spectrophotometer. Three wells containing the XTT reagent without cells serve as the plate blank. XTT data are reported as OD490-OD650. Averages and standard error of the mean are computed using SOFTmax Pro software (Molecular Dynamics). The IC50 for the compounds is defined as the concentration of drug leading to a 50% reduction in OD490-OD650 compared to controls. The OD490-OD650 are computed by the SOFTmax PRO software (Molecular Devices) for each compound concentration. IC50 is calculated by linear regression, plotting the FAS activity as percent of control versus drug concentrations. Linear regression, best-fit line, r^2, and 95% confidence intervals are determined using Prism Version 3.0 (Graph Pad Software).
`CCCCCCCCC1(C)SC(=O)C=C1OCC(=O)Nc1ccc(C)cc1` (centres unmarked) showed an IC50 of 6.8 µg/mL (≈ 17.5 µM). In the case of `CCCCCCCCC1(C)SC(=O)C=C1OCC(=O)Nc1ccc(C(N)=O)cc1` (centres unmarked), the IC50 is reported as 10.2 µg/mL (≈ 24.4 µM). Work on `CCCCCCCCC1(C)SC(=O)C=C1OCC(=O)Nc1ccc(C#N)cc1` (centres unmarked) yielded an IC50 of 3.8 µg/mL (≈ 9.49 µM). `CCCCCCCCC1(C)SC(=O)C=C1OCC(=O)Nc1ccc(S(N)(=O)=O)cc1` (centres unmarked) gave an IC50 of 7 µg/mL (≈ 15.4 µM).

System: OVCAR3 cells
Test: XTT cytotoxicity assay, OVCAR3 (OV)
Format: cell-based
Conditions: Homo sapiens, OVCAR-3
Experimental: (§1) XTT Cytotoxicity Assay The XTT assay is a non-radioactive alternative for the [^51Cr] release cytotoxicity assay. XTT is a tetrazolium salt that is reduced to a formazan dye only by metabolically active, viable cells. The reduction of XTT is measured spectrophotometrically as OD490-OD650. To measure the cytotoxicity of specific compounds against cancer cells, 9×10^3 MCF-7 human breast cancer cells (shown in the tables as “(M)”), obtained from the American Type Culture Collection are plated per well in 96 well plates in DMEM medium with 10% fetal bovine serum, insulin, penicillin, and streptomycin. Following overnight culture at 37° C. and 5% CO2, the compounds to be tested, dissolved in DMSO, are added to the wells in 1 μl volume at the following concentrations: 80, 40, 20, 10, 5, 2.5, 1.25, and 0.625 μg/ml in triplicate. Additional concentrations are tested if required. 1 μl of DMSO is added to triplicate wells are the vehicle control. C75 is run at 40, 20, […], and 5 μg/ml in triplicate as positive controls. After 72 hours of incubation, cells are incubated for 4 hours with the XTT reagent as per manufacturer's instructions (Cell Proliferation Kit II (XTT) Roche). Plates are read at OD490 and OD650 on a Molecular Devices SpectraMax Plus Spectrophotometer. Three wells containing the XTT reagent without cells serve as the plate blank. XTT data are reported as OD490-OD650. Averages and standard error of the mean are computed using SOFTmax Pro software (Molecular Dynamics). The IC50 for the compounds is defined as the concentration of drug leading to a 50% reduction in OD490-OD650 compared to controls. The OD490-OD650 are computed by the SOFTmax PRO software (Molecular Devices) for each compound concentration. IC50 is calculated by linear regression, plotting the FAS activity as percent of control versus drug concentrations. Linear regression, best-fit line, r^2, and 95% confidence intervals are determined using Prism Version 3.0 (Graph Pad Software). The test was also run against OVCAR3 cells (“OV”), and HCT116 cells (“H”).
Work on `CCCCCCCCC1(C)SC(=O)C=C1OCC(=O)Nc1ccc(C)cc1` (centres unmarked) yielded an IC50 of 8.1 µg/mL (≈ 20.8 µM). `CCCCCCCCC1(C)SC(=O)C=C1OCC(=O)Nc1ccc(C(N)=O)cc1` (centres unmarked) showed an IC50 of 21.5 µg/mL (≈ 51.4 µM). In the case of `CCCCCCCCC1(C)SC(=O)C=C1OCC(=O)Nc1ccc(C#N)cc1` (centres unmarked), the IC50 is reported as 6.6 µg/mL (≈ 16.5 µM). For `CCCCCCCCC1(C)SC(=O)C=C1OCC(=O)Nc1ccc(S(N)(=O)=O)cc1` (centres unmarked), the IC50 was 13.4 µg/mL (≈ 29.5 µM).

System: HCT116 cells
Test: XTT cytotoxicity assay, HCT116 (H)
Format: cell-based
Conditions: Homo sapiens, HCT-116
Experimental: as §1
For `CCCCCCCCC1(C)SC(=O)C=C1OCC(=O)Nc1ccc(C)cc1` (centres unmarked), the IC50 was 12.8 µg/mL (≈ 32.9 µM). `CCCCCCCCC1(C)SC(=O)C=C1OCC(=O)Nc1ccc(C(N)=O)cc1` (centres unmarked) gave an IC50 of 10.6 µg/mL (≈ 25.3 µM). `CCCCCCCCC1(C)SC(=O)C=C1OCC(=O)Nc1ccc(C#N)cc1` (centres unmarked) gave an IC50 of 5.3 µg/mL (≈ 13.2 µM). In the case of `CCCCCCCCC1(C)SC(=O)C=C1OCC(=O)Nc1ccc(S(N)(=O)=O)cc1` (centres unmarked), the IC50 is reported as 8.7 µg/mL (≈ 19.1 µM).

System: Enterococcus faecalis (ATCC # 29212)
Test: Broth microdilution antimicrobial assay, E. faecalis
Format: cell-based
Conditions: Mueller Hinton Broth
Experimental: Antimicrobial Properties A broth microdilution assay is used to assess the antimicrobial activity of the compounds. Compounds are tested at twofold serial dilutions, and the concentration that inhibits visible growth (OD600 at 10% of control) is defined as the MIC. Microorganisms tested include Staphylococcus aureus (ATCC # 29213), Enterococcus faecalis (ATCC # 29212), Pseudomonas aerpginosa (ATCC # 27853), and Escherichia coli (ATCC # 25922). The assay is performed in two growth media, Mueller Hinton Broth and Trypticase Soy Broth.
A blood (Tsoy/5% sheep blood) agar plate is inoculated from frozen stocks maintained in T soy broth containing 10% glycerol and incubated overnight at 37° C. Colonies are suspended in sterile broth so that the turbidity matches the turbidity of a 0.5 McFarland standard. The inoculum is diluted 1:10 in sterile broth (Mueller Hinton or Trypticase soy) and 195 μl is dispensed per well of a 96-well plate. The compounds to be tested, dissolved in DMSO, are added to the wells in 5 μl volume at the following concentrations: 25, 12.5, 6.25, 3.125, 1.56 and 0.78 μg/ml in duplicate. Additional concentrations are tested if required. 5 μl of DMSO added to duplicate wells are the vehicle control. Serial dilutions of positive control compounds, vancomycin (E. faecalis and S. aureus) and tobramycin (E. coli and P. aerpginosa), are included in each run.
After 24 hours of incubation at 37° C., plates are read at OD600 on a Molecular Devices SpectraMax Plus Spectrophotometer. Average OD600 values are computed using SOFTmax Pro Software (Molecular Devices) and MIC values are determined by linear regression analysis using Prism version 3.02 (Graph Pad Software, San Diego). The MIC is defined as the concentration of compound required to produce an OD600 reading equivalent to 10% of the vehicle control reading.
With `CCCCCCCCC1(C)SC(=O)C=C1OCC(=O)Nc1ccc(C)cc1` (centres unmarked) the “EF/MH (MIC)” value was “Neg”.

Same assay, conditions: Trypticase Soy Broth
For `CCCCCCCCC1(C)SC(=O)C=C1OCC(=O)Nc1ccc(C)cc1` (centres unmarked), the “EF/Tsoy (MIC)” value was “Neg”.

System: not listed separately
Test: Solubility problem noted during the assays
Format: physicochemical
Conditions: read-out: Sol Prob (solubility problem at concentration)
For `CCCCCCCCC1(C)SC(=O)C=C1OCC(=O)Nc1ccc(C(N)=O)cc1` (centres unmarked), the solubility was 80 µg/mL (≈ 191 µM). `CCCCCCCCC1(C)SC(=O)C=C1OCC(=O)Nc1ccc(C#N)cc1` (centres unmarked) gave a solubility of 80 µg/mL (≈ 200 µM). `CCCCCCCCC1(C)SC(=O)C=C1OCC(=O)Nc1ccc(S(N)(=O)=O)cc1` (centres unmarked) showed a solubility of 80 µg/mL (≈ 176 µM).
